Measurements reported in patent US10681908B2, “Molecules having pesticidal utility, and intermediates, compositions, and processes, related thereto” (Dow AgroSciences LLC, priority 2016, dated 2020).

What was measured:
Assay type in all cases: in vivo
[1] = test system: Cabbage Looper (Trichoplusia ni, TRIPNI); test: Bioassay on Cabbage Looper (CL), 128-well diet tray assay; settings: 168 h, 50 μg/cm^2 on artificial diet, second instar larvae, five to seven days, 25° C., read-out: CL % Control (or Mortality) rating
In short: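 Percent mortality, averaged over eight wells, scored after five to seven days at 25° C. under 14:10 light-dark. Each well held 1–5 second-instar larvae on artificial diet treated with 50 μg/cm^2 test molecule applied in 90:10 acetone-water and dried.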

[2] = test system: Beet Armyworm (Spodoptera exigua, LAPHEG); test: Bioassay on Beet Armyworm (BAW), 128-well diet tray assay; settings: 168 h, 50 μg/cm^2 on artificial diet, second instar larvae, five to seven days, 25° C., read-out: BAW % Control (or Mortality) rating
In short: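 Mortality of second-instar larvae (one to five per well) was scored after five to seven days at 25 °C under 14:10 light-dark and averaged across eight wells. Each well's diet had received 50 μg/cm^2 test molecule from a 90:10 acetone-water solution, allowed to dry before infestation.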

[3] = test system: Yellow Fever Mosquito (Aedes aegypti, AEDSAE); settings: about 1 day-old larvae, 3 days, room temperature, scored on mortality
Protocol: Example C: Bioassays on Yellow Fever Mosqurro (Aedes aegypti, AEDSAE) (“YFM”)
Certain molecules disclosed in this document were tested against YFM using procedures described in the following paragraph. In the reporting of the results, the “GPA & YFM Rating Table” was used (See Table Section).
Master plates containing 400 μg of a molecule dissolved in 100 μL of dimethyl sulfoxide (DMSO) (equivalent to a 4000 ppm solution) are used. A master plate of assembled molecules contains 15 μL per well. To this plate, 135 μL of a 90:10 water:acetone mixture is added to each well. A robot (Biomek® NXP Laboratory Automation Workstation) is programmed to dispense 15 μL aspirations from the master plate into an empty 96-well shallow plate (“daughter” plate). There are 6 reps (“daughter” plates) created per master. The created daughter plates are then immediately infested with YFM larvae.
The day before plates are to be treated, mosquito eggs are placed in Millipore water containing liver powder to begin hatching (4 g. into 400 mL). After the daughter plates are created using the robot, they are infested with 220 μL of the liver powder/larval mosquito mixture (about 1 day-old larvae). After plates are infested with mosquito larvae, a non-evaporative lid is used to cover the plate to reduce drying. Plates are held at room temperature for 3 days prior to grading. After 3 days, each well is observed and scored based on mortality. The results are indicated in the table entitled “Table ABC: Biological Results” (See Table Section).

SMILES	mortality at 50 µg/cm2 [1] [%]	mortality at 50 µg/cm2 [2] [%]	YFM % Control (or Mortality) rating [3]
CC[S+]([O-])C[C@@H](C)NC(=O)c1ccc(/C(F)=C/C(c2cc(C)c(Cl)c(C)c2)C(F)(F)F)cc1C(F)(F)F (stereo partly drawn) [F44, 4-((Z)-3-(4-Chloro-3,5-dimethylphenyl)-1,4,4,4-tetrafluorobut-1-en-1-yl)-N-((2R)-1-(ethylsulfinyl)propan-2-yl)-2-(trifluoromethyl)benzamide]	50 to 100	50 to 100	A (80-100)
CCS(=O)(=O)C[C@@H](C)NC(=O)c1ccc(/C(F)=C/C(c2cc(Cl)cc(Cl)c2)C(F)(F)F)cc1C(F)(F)F (stereo partly drawn) [F45, 4-((Z)-3-(3,5-Dichlorophenyl)-1,4,4,4-tetrafluorobut-1-en-1-yl)-N—((R)-1-(ethylsulfonyl)propan-2-yl)-2-(trifluoromethyl)benzamide]	50 to 100	50 to 100	A (80-100)
O=C(NCCS(=O)(=O)CC(F)(F)F)c1ccc(/C(F)=C/C(c2cc(Cl)c(Cl)c(Cl)c2)C(F)(F)F)cc1C(F)(F)F (stereo not drawn) [F49, (Z)-4-(1,4,4,4-tetrafluoro-3-(3,4,5-trichlorophenyl)but-1-en-1-yl)-N-(2-((2,2,2-trifluoroethyl)sulfonyl)ethyl)-2-(trifluoromethyl)benzamide]	50 to 100	50 to 100	A (80-100)
Cc1cc(C(/C=C(\F)c2ccc(C(=O)N[C@H](C)CSCC(F)(F)F)c(C(F)(F)F)c2)C(F)(F)F)cc(C)c1Cl (stereo partly drawn) [F52, 4-((Z)-3-(4-Chloro-3,5-dimethylphenyl)-1,4,4,4-tetrafluorobut-1-en-1-yl)-N—((R)-1-((2,2,2-trifluoroethyl)thio)propan-2-yl)-2-(trifluoromethyl)benzamide]	50 to 100	50 to 100	D (No activity noticed in this bioassay)
CCS(=O)(=O)C[C@@H](C)NC(=O)c1ccc(/C(F)=C/C(c2cc(C)c(Cl)c(C)c2)C(F)(F)F)cc1C(F)(F)F (stereo partly drawn) [F53, 4-((Z)-3-(4-Chloro-3,5-dimethylphenyl)-1,4,4,4-tetrafluorobut-1-en-1-yl)-N—((R)-1-(ethylsulfonyl)propan-2-yl)-2-(trifluoromethyl)benzamide]	50 to 100	50 to 100	D (No activity noticed in this bioassay)
C[C@H](CS(=O)(=O)CC(F)(F)F)NC(=O)c1ccc(/C(F)=C/C(c2ccc(Br)c(Br)c2)C(F)(F)F)cc1C(F)(F)F (stereo partly drawn) [F54, 4-((Z)-3-(3,4-Dibromophenyl)-1,4,4,4-tetrafluorobut-1-en-1-yl)-N—((R)-1-((2,2,2-trifluoroethyl)sulfonyl)propan-2-yl)-2-(trifluoromethyl)benzamide]	50 to 100	50 to 100	A (80-100)
CCS(=O)(=O)C[C@@H](C)NC(=O)c1ccc(/C(F)=C/C(c2cc(Br)c(Cl)c(Br)c2)C(F)(F)F)cc1C(F)(F)F (stereo partly drawn) [F55, 4-((Z)-3-(3,5-Dibromo-4-chlorophenyl)-1,4,4,4-tetrafluorobut-1-en-1-yl)-N—((R)-1-(ethylsulfonyl)propan-2-yl)-2-(trifluoromethyl)benzamide]	50 to 100	50 to 100	A (80-100)
C[C@H](CS(=O)(=O)CC(F)(F)F)NC(=O)c1ccc(/C(F)=C/C(c2cc(Cl)cc(Br)c2)C(F)(F)F)cc1C(F)(F)F (stereo partly drawn) [F65]	50 to 100	50 to 100	B (More than 0-Less than 80)
Cc1cc(C(/C=C(\F)c2ccc(C(=O)N[C@H](C)CS(=O)(=O)CC(F)(F)F)c(C(F)(F)F)c2)C(F)(F)F)cc(Cl)c1Cl (stereo partly drawn) [F78, 4-((Z)-3-(3,4-Dichloro-5-methylphenyl)-1,4,4,4-tetrafluorobut-1-en-1-yl)-N—((R)-1-((2,2,2-trifluoroethyl)sulfonyl)propan-2-yl)-2-(trifluoromethyl)benzamide]	50 to 100	50 to 100	B (More than 0-Less than 80)
C[C@H](CS(=O)(=O)CC(F)(F)F)NC(=O)c1ccc(/C(F)=C/C(c2ccc(C(F)(F)F)c(Cl)c2)C(F)(F)F)cc1C(F)(F)F (stereo partly drawn) [F91]	50 to 100	50 to 100	D (No activity noticed in this bioassay)
O=C(NCCSC(F)(F)F)c1ccc(/C(F)=C/C(c2cc(Cl)c(Cl)c(Cl)c2)C(F)(F)F)cc1C(F)(F)F (stereo not drawn) [F92, (Z)-4-(1,4,4,4-tetrafluoro-3-(3,4,5-trichlorophenyl)but-1-en-1-yl)-2-(trifluoromethyl)-N-(2-((trifluoromethyl)thio)ethyl)benzamide]	50 to 100	50 to 100	B (More than 0-Less than 80)
C[C@H](CS(=O)(=O)CC(F)(F)F)NC(=O)c1ccc(/C(F)=C/C(c2ccc(C(F)(F)F)c(Br)c2)C(F)(F)F)cc1C(F)(F)F (stereo partly drawn) [F95, 4-((Z)-3-(3-Bromo-4-(trifluoromethyl)phenyl)-1,4,4,4-tetrafluorobut-1-en-1-yl)-N—((R)-1-((2,2,2-trifluoroethyl)sulfonyl)propan-2-yl)-2-(trifluoromethyl)benzamide]	50 to 100	50 to 100	A (80-100)
C[C@H](CS(=O)(=O)CC(F)(F)F)NC(=O)c1ccc(/C(F)=C/C(c2cc(Cl)c(Cl)c(Cl)c2)C(F)F)cc1C(F)(F)F (stereo partly drawn) [F98, 4-((Z)-1,4,4-Trifluoro-3-(3,4,5-trichlorophenyl)but-1-en-1-yl)-N—((R)-1-((2,2,2-trifluoroethyl)sulfonyl)propan-2-yl)-2-(trifluoromethyl)benzamide]	50 to 100	50 to 100	A (80-100)
C[C@H](C[S+]([O-])CCF)NC(=O)c1ccc(/C(F)=C/C(c2cc(Cl)c(Cl)c(Cl)c2)C(F)(F)F)cc1C(F)(F)F (stereo partly drawn) [F99, N-((2R)-1-((2-Fluoroethyl)sulfinyl)propan-2-yl)-4-((Z)-1,4,4,4-tetrafluoro-3-(3,4,5-trichlorophenyl)but-1-en-1-yl)-2-(trifluoromethyl)benzamide]	50 to 100	50 to 100	A (80-100)
C[C@H](CSCC(F)(F)F)NC(=O)c1ccc(/C(F)=C/C(c2ccc(F)c(C(F)(F)F)c2)C(F)(F)F)cc1C(F)(F)F (stereo partly drawn) [F102, 4-((Z)-1,4,4,4-Tetrafluoro-3-(4-fluoro-3-(trifluoromethyl)phenyl)but-1-en-1-yl)-N—((R)-1-((2,2,2-trifluoroethyl)thio)propan-2-yl)-2-(trifluoromethyl)benzamide]	50 to 100	50 to 100	A (80-100)
C[C@H](CS(=O)(=O)CC(F)(F)F)NC(=O)c1ccc(/C(F)=C/C(c2cc(F)c(F)c(Cl)c2)C(F)(F)F)cc1C(F)(F)F (stereo partly drawn) [F103, 4-((Z)-3-(3-Chloro-4,5-difluorophenyl)-1,4,4,4-tetrafluorobut-1-en-1-yl)-N—((R)-1-((2,2,2-trifluoroethyl)sulfonyl)propan-2-yl)-2-(trifluoromethyl)benzamide]	50 to 100	50 to 100	A (80-100)
C=Cc1c(Cl)cc(C(/C=C(\F)c2ccc(C(=O)N[C@H](C)CS(=O)(=O)CC)c(C(F)(F)F)c2)C(F)(F)F)cc1Cl (stereo partly drawn) [F119, 4-((Z)-3-(3,5-Dichloro-4-vinylphenyl)-1,4,4,4-tetrafluorobut-1-en-1-yl)-N—((R)-1-(ethylsulfonyl)propan-2-yl)-2-(trifluoromethyl)benzamide]	50 to 100	50 to 100	A (80-100)
C[C@H](C[S+]([O-])CCC(F)(F)F)NC(=O)c1ccc(/C(F)=C/C(c2cc(Cl)c(Cl)c(Cl)c2)C(F)(F)F)cc1C(F)(F)F (stereo partly drawn) [F121, 4-((Z)-1,4,4,4-Tetrafluoro-3-(3,4,5-trichlorophenyl)but-1-en-1-yl)-2-(trifluoromethyl)-N-((2R)-1-((3,3,3-trifluoropropyl)sulfinyl)propan-2-yl)benzamide]	50 to 100	50 to 100	A (80-100)
O=C(NCCSCCF)c1ccc(/C(F)=C/C(c2cc(Cl)c(Cl)c(Cl)c2)C(F)(F)F)cc1C(F)(F)F (stereo not drawn) [F125, (Z)—N-(2-((2-Fluoroethyl)thio)ethyl)-4-(1,4,4,4-tetrafluoro-3-(3,4,5-trichlorophenyl)but-1-en-1-yl)-2-(trifluoromethyl)benzamide]	50 to 100	50 to 100	D (No activity noticed in this bioassay)
